Results published in patent publication US20110288125A1, “NOVEL USE OF PIPERINE” (Industry-Academic Cooperation Foundation, Yonsei University, priority 2009, published 2011).
Entries after “also recorded” stand apart in the source; their conditions may differ.

What was measured:
[1] = system: mouse adipocytes (3T3-L1); assay: Adipocyte differentiation inhibition, Oil Red O staining; assay type: cell-based; conditions: 14 days
Method: The effect of piperine on adipocyte differentiation and growth was investigated using mouse adipocytes (3T3-L1). Preadipocytes 3T3L1 were placed on a 12-well plate and cultured to confluency in a 5% CO2 incubator at 37° C. using DMEM containing 1% penicillin-streptomycin, 1% non-essential amino acids and 10% fetal bovine serum (FBS). The cultured 3T3-L1 cells were differentiated into adipocytes by culturing for 2 days in a medium containing 0.5 mM methylisobutylxanthine/1 μM dexamethasone/1 μg/mL insulin (DMI). The cells were differentiated into mature adipocytes by further culturing for 2 days in DMEM containing 1 μg/mL insulin. Subsequently, they were further cultured for 10 days while changing DMEM every other day to obtain fully differentiated adipocytes. Starting from the day when DMI was added to the 3T3-L1 cells, piperine was treated at concentrations of 0.1, 1, 10, 50 and 100 μM every other day. Piperine was purchased from Sigma and used after being dissolved in DMSO. For negative control, only DMSO was used. After the culturing for a total of 14 days, when the cells were fully differentiated, the medium was removed and the fats contained in the differentiated adipocytes were stained. […] To measure the triglyceride level of the differentiated 3T3-L1 cells, the stained cells were dissolved in 1 mL of isobutanol and OD value was measured at 600 nm.

C57BL/6J mice = assay: Body weight, food efficiency and abdominal fat-pad weights in mice on high-fat diet; assay type: in vivo, mouse; conditions: 10 weeks
Method: The high-fat diet (HFD, 40% fat calorie, 17 g lard+3% corn oil/100 g diet) was used to induce obesity and piperine-containing diet had the same composition as the HFD except for containing 0.05% piperine. Normal diet (ND) was prepared according to AIN-76 rodent diet (see Table 1). [table] 5-week-old male C57BL/6J mice were accustomed to the laboratory environment for a week while feeding solid feed. […] Diet was provided between 10 and 11 a.m. every day along with water. Diet intake was measured every day, and body weight was measured every 3 days. In order to avoid transient body weight increase due to feed intake, body weight was measured 2 hours after removing the feedbox. […] In addition, food efficiency ratio (FER) was calculated by dividing accumulated body weight gain during test period into total diet uptake from the first day of test diet to sacrifice day. […] Further, regarding accumulation of abdominal fat, after fasting the test animal for at least 12 hours and anesthetizing with diethyl ether, blood, liver and abdominal fat tissues (epididymal, perirenal, mesenteric and retroperitoneal fat) were taken and weighed after washing with 0.1 M PBS (pH 7.4).

Swiss albino mice = conditions: piperine 100 mg/kg once a day for 4 weeks before benzo[α]pyrene 50 mg/kg twice a week for 16 weeks; cited from earlier work
[2] = 0.05% piperine in HFD, per unit body weight, FIG. 4

O=C(/C=C/C=C/c1ccc2c(c1)OCO2)N1CCCCC1 [piperine]
concentration at which differentiation of preadipocytes 3T3-L1 was decreased in a concentration-dependent manner ([1]; piperine 0.1, 1, 10, 50 and 100 μM every other day, vs DMSO, FIG. 1A): ≥ 10 µM | amount of intracellular fat (OD value at 600 nm of fats stained with Oil Red O) ([1]; piperine 0.1-100 μM, stain dissolved in isobutanol, FIG. 1B): concentration-dependently reduced the amount of intracellular fat; also recorded: decrease in OD value in a concentration-dependent manner | decrease in body weight gain (accumulated) compared to high-fat diet control group (C57BL/6J mice; 0.05% piperine in HFD, FIG. 2): 68% | decrease in final body weight compared to high-fat diet control group (C57BL/6J mice; 0.05% piperine in HFD, FIG. 2): 40% | daily food intake compared to high-fat diet control group (C57BL/6J mice; 0.05% piperine in HFD, FIG. 3): reduced; also recorded: significant decrease | reduction of food efficiency ratio (FER) compared to high-fat diet control group (C57BL/6J mice; 0.05% piperine in HFD, body weight gain / total diet intake, FIG. 3): 64% | reduction of epididymal fat-pad weight compared to high-fat diet control group (C57BL/6J mice; [2]): 63% | reduction of mesenteric fat-pad weight compared to high-fat diet control group (C57BL/6J mice; [2]): 68% | reduction of perirenal fat-pad weight compared to high-fat diet control group (C57BL/6J mice; [2]): 85% | reduction of retroperitoneal fat-pad weight compared to high-fat diet control group (C57BL/6J mice; [2]): 63% | reduction of total abdominal (visceral) fat-pad weights compared to high-fat diet control group (C57BL/6J mice; [2]): 66% | feed efficiency compared to control group (HFD), in words (C57BL/6J mice; piperine-supplemented diet): reduced | antioxidant indicators (SOD, CAT, GPX, GSH, vitamin E, vitamin C) in the tissues (Swiss albino mice): significantly high values
